Square brackets hold non-standard residues; d marks the D form. Ends that are not written are not given here. Peptide text beside a SMILES is read from it. ξ: configuration not given here. ξNMeBmt = C/C=C/C[C@@H](C)[C@@H](O)C(NC)C(=O)O; NMeL = CN[C@@H](CC(C)C)C(=O)O; NMeV = CN[C@H](C(=O)O)C(C)C; Abu = CC[C@H](N)C(=O)O; Sar = CNCC(=O)O
Key:
AtT20 cells [1] = assay: CRF-induced cAMP accumulation in AtT20 cells; format: cell-based, mouse; details: for cAMP response to CRF after lowering intracellular free Ca2+: EGTA 2 mmol/l, nimodipine 1 μmol/l, BAPTA-AM 20 μmol/l in preincubation, IBMX 0.5 mmol/l; for CRF-induced cAMP formation: 1 μmol/l FK506, 10 nmol/l CRF, calcium-depleted cells
Procedure: Experiments for cAMP were all carried out in Hanks balanced salt solution containing 2 mM CaCl2 and 1 mM MgSO4 buffered with 25 mM HEPES pH 7.4 and supplemented with 0.25% (w/v) of bovine serum albumin. The cells were preincubated in serum free medium for 1 hour, after which blockers of phosphosdiesterase (isobutylmethylxanthine 0.5 mM (IBMX) and/or rolipram 0.1 mM) along with various other treatments were applied for 30 minutes at 37° C. Subsequently the cells were cooled to 22° C. for 5 minutes in a water bath and agonists were added for 10 minutes. The reaction was stopped by the addition of 0.2 mol/l HCl to achieve a final concentration of 0.1 mol/l (Brooker et al, (1979) Adv. in Cyclic Nucl. Res. Vol. 10, G. Brooker, P. Greengard and G. A. Robinson, Raven Press, New York, 2-34).
In some experiments cells were preincubated for 30 minutes in medium containing 2 mmol/l EGTA and no added Ca^2+, supplemented with 5 μmol/l A23187 and 2.5 μmol/l nifedipine in order to deplete rapidly mobilized cellular stores of Ca^2+. […] The rationale for this pretreatment is that calcineurin reportedly influences L-channel activity (Lai et al, (1993) J. Neurochem. 61:1333-1339; and Armstrong et al, (1987) Proc. Natl. Acad. Sci. U.S.A. 84:2518-2522), whereas the treatment regimen used here would make Ca^2+ entry independent of this regulation.
These compounds were made up in ethanol at 10^−3 mol/l and diluted with the incubation medium to the desired final concentrations. In some cases cells were preincubated with L685,818 the structural analogue of FK506 that binds to FKBP-12 and inhibits prolyl-isomerase activity but is devoid of immunosuppressant activity (Dumont et al, (1992) J. Exp. Med. 176:751-760) for 10 minutes before the addition of FK506 for 30 minutes at 37° C.

AtT20 cells [2] = assay: cAMP accumulation induced by β-adrenergic stimulation (isoproterenol) in AtT20 cells; format: cell-based, mouse
AtT20 cells [3] = assay: forskolin-evoked cAMP accumulation in AtT20 cells; format: cell-based, mouse
Procedure: The cells were preincubated in serum free medium for 1 hour, after which blockers of phosphosdiesterase (isobutylmethylxanthine 0.5 mM (IBMX) and/or rolipram 0.1 mM) along with various other treatments were applied for 30 minutes at 37° C. Subsequently the cells were cooled to 22° C. for 5 minutes in a water bath and agonists were added for 10 minutes. […] Res. Vol. 10, G. Brooker, P. Greengard and G. A. Robinson, Raven Press, New York, 2-34).

AtT20 cells [4] = assay: ACTH release by AtT20 cells; format: cell-based, mouse
[5] = test system: HEK293 cells transfected with AC; assay: cAMP in HEK293 cells transiently transfected with AC; format: cell-based, human; details: FK506 2 μmol/l, L-685,818 100 μmol/l; 1 mmol/l IBMX, 0.1 mmol/l rolipram
[6] = test system: T1, GST fusion protein of the FKBP12 like domain (residues 594-611) of mouse AC
T1 sequence: IDDSRESSGPRGQGTASP

[7] = isoproterenol 2 nmol/l, pretreatment FK506 1 μmol/l or BAPTA/AM 20 μmol/l, IBMX 0.5 mmol/l, rolipram 0.1 mmol/l
[8] = isoproterenol 10 nmol/l, pretreatment FK506 1 μmol/l or BAPTA/AM 20 μmol/l, IBMX 0.5 mmol/l, rolipram 0.1 mmol/l
[9] = isoproterenol 1000 nmol/l, pretreatment FK506 1 μmol/l or BAPTA/AM 20 μmol/l, IBMX 0.5 mmol/l, rolipram 0.1 mmol/l

Compound: CNc1ccc2oc(C[C@H]3O[C@@]4(CC[C@H]3C)O[C@H]([C@H](C)C(=O)c3ccc[nH]3)[C@H](C)C[C@H]4C)nc2c1C(=O)O [A23187]
- cAMP response to CRF after lowering intracellular free Ca2+ (AtT20 cells [1]): markedly increased the cAMP response to CRF

Compound: CC(=O)OCOC(=O)CN(CC(=O)OCOC(C)=O)c1ccccc1OCCOc1ccccc1N(CC(=O)OCOC(C)=O)CC(=O)OCOC(C)=O [BAPTA-AM, [1,2-bis-(o-Aninophenoxy)-ethane-N,N,N′,N′-tetraacetic acid tetra-(acetoxymethyl)-ester]]
- cAMP response to CRF after lowering intracellular free Ca2+ (AtT20 cells [1]): markedly increased the cAMP response to CRF
- isoproterenol induced cAMP formation (AtT20 cells [2]): enhanced
- cAMP accumulation (AtT20 cells [2]; isoproterenol 0.4 nmol/l, pretreatment FK506 1 μmol/l or BAPTA/AM 20 μmol/l, IBMX 0.5 mmol/l, rolipram 0.1 mmol/l): 0.96 ± 0.06
- cAMP accumulation (AtT20 cells [2]; [7]): 3.6 ± 0.6
- cAMP accumulation (AtT20 cells [2]; [8]): 11.4 ± 0.9
- cAMP accumulation (AtT20 cells [2]; isoproterenol 100 nmol/l, pretreatment FK506 1 μmol/l or BAPTA/AM 20 μmol/l, IBMX 0.5 mmol/l, rolipram 0.1 mmol/l): 35.5 ± 3.4
- cAMP accumulation (AtT20 cells [2]; [9]): 46.9 ± 9
- enhancement of forskolin-evoked cAMP accumulation (AtT20 cells [3]; cells loaded with BAPTA-AM): 15%

Compound: O=C(O)CN(CCOCCOCCN(CC(=O)O)CC(=O)O)CC(=O)O [EGTA]
- cAMP response to CRF after lowering intracellular free Ca2+ (AtT20 cells [1]): markedly increased the cAMP response to CRF

Compound: C=CC[C@@H]1/C=C(\C)C[C@H](C)C[C@H](OC)[C@H]2O[C@@](O)(C(=O)C(=O)N3CCCC[C@H]3C(=O)O[C@H](/C(C)=C/[C@@H]3CC[C@@H](O)[C@H](OC)C3)[C@H](C)[C@@H](O)CC1=O)[C@H](C)C[C@@H]2OC [FK506]
- EC50 (AtT20 cells [1]; Mus musculus, AtT20, read-out: apparent EC50 to augment cAMP accumulation induced by CRF): ~10 nM
- CRF-induced cAMP formation (AtT20 cells [1]; extracellular free Ca2+ 0 mmol/l, 0.5 mmol/l IBMX): 10.3 ± 0.10 pmol/well
- CRF-induced cAMP formation (AtT20 cells [1]; extracellular free Ca2+ 0.5 mmol/l, 0.5 mmol/l IBMX): 10.0 ± 0.11 pmol/well
- CRF-induced cAMP formation (AtT20 cells [1]; extracellular free Ca2+ 1.0 mmol/l, 0.5 mmol/l IBMX): 10.4 ± 0.10 pmol/well
- CRF-induced cAMP formation (AtT20 cells [1]; extracellular free Ca2+ 1.5 mmol/l, 0.5 mmol/l IBMX): 11.3 ± 0.13 pmol/well
- CRF-induced cAMP formation (AtT20 cells [1]; extracellular free Ca2+ 2.0 mmol/l, 0.5 mmol/l IBMX): 9.5 ± 0.11 pmol/well
- cAMP accumulation (AtT20 cells [2]; [7]): 3.3 ± 0.7
- cAMP accumulation (AtT20 cells [2]; [8]): 15.3 ± 2.5
- cAMP accumulation (AtT20 cells [2]; [9]): 45.3 ± 9
- cAMP accumulation evoked by forskolin (AtT20 cells [3]; 10 or 30 μM forskolin): no significant effect
- EC50 (AtT20 cells [4]; Mus musculus, AtT20, read-out: apparent EC50 to stimulate ACTH release): ~10 nM
- unstimulated cAMP levels [5]: 3 fold

Compound: CC(C)NCC(O)c1ccc(O)c(O)c1 (centres unmarked) [Isoproterenol]
- cAMP accumulation (AtT20 cells [2]; isoproterenol 0.4 nmol/l, no pretreatment): 0.7 ± 0.04
- cAMP accumulation (AtT20 cells [2]; isoproterenol 2 nmol/l, no pretreatment): 2.0 ± 0.08
- cAMP accumulation (AtT20 cells [2]; isoproterenol 10 nmol/l, no pretreatment): 9.5 ± 0.33
- cAMP accumulation (AtT20 cells [2]; isoproterenol 100 nmol/l, no pretreatment): 19.5 ± .5
- cAMP accumulation (AtT20 cells [2]; isoproterenol 1000 nmol/l, no pretreatment): 32.1 ± 0.5

Compound: C/C=C/C[C@@H](C)[C@@H](O)C1C(=O)N[C@@H](CC)C(=O)N(C)CC(=O)N(C)[C@@H](C(C)C)C(=O)N[C@@H](C(C)C)C(=O)N(C)[C@@H](CC(C)C)C(=O)N[C@@H](C)C(=O)N[C@H](C)C(=O)N(C)[C@@H](CC(C)C)C(=O)N(C)[C@@H](CC(C)C)C(=O)N(C)[C@@H](C(C)C)C(=O)N1C (some centres unmarked) [MeVal^4-cyclosporin A] (cyclo(A[dA][NMeL][NMeL][NMeV][ξNMeBmt][Abu][Sar][NMeV]V[NMeL]))
- CRF-induced cAMP production (AtT20 cells [1]; 10 nmol/l CRF, 0.5 mmol/l IBMX, drug preincubated 30 minutes): enhanced CRF-induced cAMP production in a concentration dependent manner

Compound: CRF: hypothalamic neuropeptide corticotropin-releasing factor (SEEPPISLDLTFHLLREVLEMARAEQLAQQAHSNRKLMEII; ends and bridges not checked; UniProt P06850 154-194, looked up)
- cAMP level in the presence of CRF (AtT20 cells [1]; 10 nmol/l CRF (FIG. 3A)): 12 pmol/well*10minutes
- increment of cAMP caused by CRF (AtT20 cells [1]; 10 nmol/l CRF, 0.5 mmol/l isobutylmethylxanthine (FIG. 1)): 6.1 pmol/well
- CRF-stimulated ACTH release (AtT20 cells [4]; FIG. 7A, value taken as 100%): 22±1 fmol/well*30 minutes

Compound: cAMP dependent protein kinase
- phosphorylation of the cyclase portion of the GST fusion protein [6]: can be phosphorylated by cAMP dependent protein kinase

Compound: calcineurin (protein phosphatase 2B), as used on the GST fusion protein
- dephosphorylation of the cyclase portion of the GST fusion protein [6]: dephosphorylated in a calcium dependent manner by calcineurin

Compound: pertussis toxin
- suppression of CRF-induced cAMP formation by extracellular Ca2+ (AtT20 cells [1]; Ca2+-depleted cells, pertussis toxin treatment): had no effect on the suppression of CRF-induced cAMP formation by extracelluar Ca^2+
- inhibitory G-protein function (somatostatin-mediated inhibition of cAMP formation) (AtT20 cells [1]; pertussis toxin 1 μg/ml): strongly suppressed inhibitory G-protein function

— US20020142436A1, “Human adenylate cyclase and use therefor” (priority 1995, published 2002)
